# Assay results taken from patent US7981903B2, “2-[2-{phenylamino}-1H-pyrrolo[2,3-D]pyrimidin-4-yl)amino] benzamide derivatives as IGF-1R inhibitors for the treatment of cancer” (GlaxoSmithKline LLC, priority 2007, dated 2011).
# Assays:
# [1] = target: T1, NIH-3T3 cells overexpressing human IGF-1R (Homo sapiens, UniProt P08069); experiment: IGF-1R cellular autophosphorylation (DELFIA); assay type: cell-based
# T1 construct: expressed in transfected cells; host or cells: NIH-3T3 (mouse fibroblasts)
# T1 sequence (P08069 31-1367): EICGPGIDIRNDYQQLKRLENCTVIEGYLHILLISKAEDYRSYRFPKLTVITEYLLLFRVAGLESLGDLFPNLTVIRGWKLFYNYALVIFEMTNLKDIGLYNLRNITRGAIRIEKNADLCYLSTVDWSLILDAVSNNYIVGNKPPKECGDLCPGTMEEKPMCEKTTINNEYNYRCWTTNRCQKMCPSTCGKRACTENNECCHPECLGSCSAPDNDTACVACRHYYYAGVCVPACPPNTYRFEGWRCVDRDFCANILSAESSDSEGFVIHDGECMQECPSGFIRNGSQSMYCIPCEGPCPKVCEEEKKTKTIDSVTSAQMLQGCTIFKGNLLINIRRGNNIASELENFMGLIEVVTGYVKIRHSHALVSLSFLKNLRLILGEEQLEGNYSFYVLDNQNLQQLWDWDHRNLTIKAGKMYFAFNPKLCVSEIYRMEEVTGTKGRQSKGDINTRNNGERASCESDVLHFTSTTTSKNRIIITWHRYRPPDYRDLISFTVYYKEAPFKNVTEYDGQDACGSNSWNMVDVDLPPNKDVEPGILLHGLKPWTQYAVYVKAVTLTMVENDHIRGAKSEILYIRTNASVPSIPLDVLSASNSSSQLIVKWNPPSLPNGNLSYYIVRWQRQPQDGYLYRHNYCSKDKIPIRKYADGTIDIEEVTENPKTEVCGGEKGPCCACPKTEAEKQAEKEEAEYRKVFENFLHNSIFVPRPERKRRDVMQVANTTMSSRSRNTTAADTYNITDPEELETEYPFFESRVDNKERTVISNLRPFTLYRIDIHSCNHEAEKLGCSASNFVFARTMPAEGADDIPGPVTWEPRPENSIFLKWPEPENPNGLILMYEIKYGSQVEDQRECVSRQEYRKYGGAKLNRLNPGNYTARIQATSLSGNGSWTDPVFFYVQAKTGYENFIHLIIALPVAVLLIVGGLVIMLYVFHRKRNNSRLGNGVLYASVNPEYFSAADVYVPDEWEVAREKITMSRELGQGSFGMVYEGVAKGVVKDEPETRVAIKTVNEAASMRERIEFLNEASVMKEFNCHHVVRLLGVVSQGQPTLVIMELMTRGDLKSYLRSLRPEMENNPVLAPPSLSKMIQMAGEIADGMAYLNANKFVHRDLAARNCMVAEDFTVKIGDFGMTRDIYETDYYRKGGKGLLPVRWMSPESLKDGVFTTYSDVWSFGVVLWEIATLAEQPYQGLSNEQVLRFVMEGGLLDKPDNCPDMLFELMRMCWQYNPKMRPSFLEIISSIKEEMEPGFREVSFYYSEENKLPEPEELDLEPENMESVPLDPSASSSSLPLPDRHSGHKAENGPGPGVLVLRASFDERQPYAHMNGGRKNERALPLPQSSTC
# Procedure, shortened: (§1)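 Receptor autophosphorylation measured by DELFIA, capturing IGF-1R or IRβ and detecting with europium anti-pTyr, reported as percent of IGF-1- or insulin-stimulated signal. Compounds (30 uM to 1.5 nM) added 2 h before ligand, then 15 min stimulation (IGF-1 30 ng/ml or insulin 3 ug/ml).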
# human IGF1R (hIGF1R) = target: T2, human IGF1R (hIGF1R) (Homo sapiens, UniProt P08069); experiment: TR-FRET kinase assay of purified hIGF1R; assay type: biochemical; details: activated hIGF1R 0.5 nM, 10 μM ATP, values given as pIC50 category, read-out: IGF-1R pIC50 (converted)
# T2 construct: containing amino acid residues 957-1367 of human IGF1R; made in house; host or cells: Sf9 cells (baculovirus)
# T2 sequence (P08069 957-1367): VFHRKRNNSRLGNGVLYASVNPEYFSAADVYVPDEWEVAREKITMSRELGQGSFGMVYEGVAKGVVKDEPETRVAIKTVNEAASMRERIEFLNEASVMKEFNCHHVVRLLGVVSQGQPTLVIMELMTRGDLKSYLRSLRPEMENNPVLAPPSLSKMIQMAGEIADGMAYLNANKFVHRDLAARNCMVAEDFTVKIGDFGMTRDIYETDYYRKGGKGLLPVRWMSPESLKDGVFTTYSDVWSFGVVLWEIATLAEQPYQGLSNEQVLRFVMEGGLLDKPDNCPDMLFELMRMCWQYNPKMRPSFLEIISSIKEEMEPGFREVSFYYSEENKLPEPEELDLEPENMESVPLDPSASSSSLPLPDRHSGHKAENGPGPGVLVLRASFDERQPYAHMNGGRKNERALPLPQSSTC
# NCI-H929 = experiment: Inhibition of cell proliferation (CellTiter-Glo or InCell analyzer), NCI-H929; assay type: cell-based; details: Homo sapiens, 72 h / 3 days, values given as IC50 category
# Procedure, shortened: In one
# [2] = target: T3, NIH-3T3 cells overexpressing human IR (Homo sapiens, UniProt P06213); experiment: IR cellular autophosphorylation (DELFIA); assay type: cell-based; details: 2 h compound, insulin 3 ug/ml for 15 minutes, IC50 category
# T3 construct: expressed in transfected cells; host or cells: NIH-3T3 (mouse fibroblasts)
# T3 sequence (P06213 28-1382): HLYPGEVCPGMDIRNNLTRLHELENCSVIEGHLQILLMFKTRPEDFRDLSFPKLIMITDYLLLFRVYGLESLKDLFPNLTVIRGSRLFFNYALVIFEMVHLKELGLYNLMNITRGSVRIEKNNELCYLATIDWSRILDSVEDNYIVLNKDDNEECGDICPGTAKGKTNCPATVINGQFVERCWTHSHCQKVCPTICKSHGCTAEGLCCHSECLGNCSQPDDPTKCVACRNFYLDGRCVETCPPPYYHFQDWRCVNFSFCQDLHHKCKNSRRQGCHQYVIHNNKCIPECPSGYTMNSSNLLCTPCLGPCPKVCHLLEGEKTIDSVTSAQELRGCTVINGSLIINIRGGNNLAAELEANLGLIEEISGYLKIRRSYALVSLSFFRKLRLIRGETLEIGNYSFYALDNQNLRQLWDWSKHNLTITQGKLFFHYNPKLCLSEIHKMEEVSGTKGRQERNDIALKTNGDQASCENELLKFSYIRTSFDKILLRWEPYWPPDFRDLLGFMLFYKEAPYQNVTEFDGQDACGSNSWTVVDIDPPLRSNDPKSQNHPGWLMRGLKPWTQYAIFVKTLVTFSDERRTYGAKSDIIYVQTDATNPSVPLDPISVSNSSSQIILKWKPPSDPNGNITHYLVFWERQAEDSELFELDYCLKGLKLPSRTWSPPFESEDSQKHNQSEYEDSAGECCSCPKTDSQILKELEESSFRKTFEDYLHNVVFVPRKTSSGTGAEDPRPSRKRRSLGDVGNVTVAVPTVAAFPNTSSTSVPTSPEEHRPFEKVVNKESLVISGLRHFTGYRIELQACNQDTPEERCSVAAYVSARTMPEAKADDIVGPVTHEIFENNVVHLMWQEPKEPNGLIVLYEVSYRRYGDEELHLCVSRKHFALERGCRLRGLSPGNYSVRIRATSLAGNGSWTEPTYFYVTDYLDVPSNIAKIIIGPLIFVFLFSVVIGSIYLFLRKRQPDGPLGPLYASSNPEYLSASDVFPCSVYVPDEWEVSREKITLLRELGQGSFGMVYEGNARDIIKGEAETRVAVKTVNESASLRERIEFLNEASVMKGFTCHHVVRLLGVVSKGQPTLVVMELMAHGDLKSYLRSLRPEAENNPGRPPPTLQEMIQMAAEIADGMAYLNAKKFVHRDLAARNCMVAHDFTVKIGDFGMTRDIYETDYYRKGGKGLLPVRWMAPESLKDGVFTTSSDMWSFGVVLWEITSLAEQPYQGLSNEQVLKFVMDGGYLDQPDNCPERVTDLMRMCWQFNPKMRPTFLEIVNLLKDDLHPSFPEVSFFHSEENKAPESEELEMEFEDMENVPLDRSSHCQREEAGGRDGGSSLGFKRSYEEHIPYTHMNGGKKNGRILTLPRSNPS
# Procedure, shortened: as §1
# Colo205 = experiment: Inhibition of cell proliferation (CellTiter-Glo or InCell analyzer), Colo205; assay type: cell-based; details: Homo sapiens, COLO 205, 72 h / 3 days, values given as IC50 category
# Procedure, shortened: In one
IC50 [1] [nM],IC50 (human IGF1R (hIGF1R)) [nM],IC50 (NCI-H929) [nM],IC50 [2] [nM],IC50 (Colo205) [nM],SMILES
< 100,1.26 to 3.98,< 250,< 100,< 250,"COc1cc(N2CCN(C(C)C)CC2)ccc1Nc1nc(Nc2cccc3c2C(=O)NC3)c2cc[nH]c2n1 [Example 199, 7-[(2-{[4-[4-(1-methylethyl)-1-piperazinyl]-2-(methyloxy)phenyl]amino}-1H-pyrrolo[2,3-d]pyrimidin-4-yl)amino]-2,3-dihydro-1H-isoindol-1-one]"
< 100,1.26 to 3.98,< 250,100 to 500,250 to 1000,"CNC(=O)c1c(F)cccc1Nc1nc(Nc2cc3c(cc2OC)CCN3C(=O)CN2CCCC2)nc2[nH]ccc12 [Example 139, 2-fluoro-N-methyl-6-[(2-{[5-(methyloxy)-1-(1-pyrrolidinylacetyl)-2,3-dihydro-1H-indol-6-yl]amino}-1H-pyrrolo[2,3-d]pyrimidin-4-yl)amino]benzamide]"
< 100,1.26 to 3.98,250 to 1000,> 500,> 1000,"COc1cc(N2CCN(CCS(C)(=O)=O)CC2)c(C)cc1Nc1nc(Nc2cccc(F)c2C(N)=O)c2cc[nH]c2n1 [Example 52, 2-fluoro-6-({2-[(5-methyl-2-(methyloxy)-4-{4-[2-(methylsulfonyl)ethyl]-1-piperazinyl}phenyl)amino]-1H-pyrrolo[2,3-d]pyrimidin-4-yl}amino)benzamide]"
< 100,1.26 to 3.98,< 250,< 100,250 to 1000,"CCN(C)CC(=O)N1CCc2cc(OC)c(Nc3nc(Nc4cccc(F)c4C(N)=O)c4cc[nH]c4n3)cc21 [Example 166, 2-[(2-{[1-(N-ethyl-N-methylglycyl)-5-(methyloxy)-2,3-dihydro-1H-indol-6-yl]amino}-1H-pyrrolo[2,3-d]pyrimidin-4-yl)amino]-6-fluorobenzamide]"
< 100,0.251 to 1,< 250,100 to 500,< 250,"CCCN1CCCC(c2ccc(Nc3nc(Nc4cc(F)ccc4C(N)=O)c4cc[nH]c4n3)c(OC)c2)C1 (stereo not drawn) [Example 71, 4-fluoro-2-[(2-{[2-(methyloxy)-4-(1-propyl-3-piperidinyl)phenyl]amino}-1H-pyrrolo[2,3-d]pyrimidin-4-yl)amino]benzamide]"
< 100,0.251 to 1,< 250,< 100,< 250,"CCCN1CCC(c2ccc(Nc3nc(Nc4cc(F)c(F)cc4C(N)=O)c4cc[nH]c4n3)c(OC)c2)CC1 [Example 98, 4,5-difluoro-2-[(2-{[2-(methyloxy)-4-(1-propyl-4-piperidinyl)phenyl]amino}-1H-pyrrolo[2,3-d]pyrimidin-4-yl)amino]benzamide]"
< 100,0.251 to 1,< 250,< 100,< 250,"CCCN1CCC(c2ccc(Nc3nc(Nc4cc(F)ccc4C(N)=O)c4cc[nH]c4n3)c(OC)c2)CC1 [Example 73, 4-fluoro-2-[(2-{[2-(methyloxy)-4-(1-propyl-4-piperidinyl)phenyl]amino}-1H-pyrrolo[2,3-d]pyrimidin-4-yl)amino]benzamide]"
100 to 500,1.26 to 3.98,< 250,100 to 500,250 to 1000,"Cc1cc2c(cc1Nc1nc(Nc3cccc(F)c3C(N)=O)c3cc[nH]c3n1)N(C(=O)CN(C)C)CCC2 [Example 246, 2-[(2-{[1-(N,N-dimethylglycyl)-6-methyl-1,2,3,4-tetrahydro-7-quinolinyl]amino}-1H-pyrrolo[2,3-d]pyrimidin-4-yl)amino]-6-fluorobenzamide]"
< 100,1.26 to 3.98,< 250,< 100,< 250,"COc1cc2c(cc1Nc1nc(Nc3ccc(F)c(F)c3C(N)=O)c3cc[nH]c3n1)N(C(=O)CN(C)C)CCC2 [Example 162, 6-[(2-{[1-(N,N-dimethylglycyl)-6-(methyloxy)-1,2,3,4-tetrahydro-7-quinolinyl]amino}-1H-pyrrolo[2,3-d]pyrimidin-4-yl)amino]-2,3-difluorobenzamide]"
